One test has as its target T1, β-lactamase (Citrobacter freundii, UniProt P05193).
T1 construct: Various β-lactamases can be isolated from penicillin- or cephalosporin-resistant bacterial strains such as; endogenous in cells; host or cells: Citrobacter freundii 1203 (enzyme purified from the crude cell extract, after ampicillin induction when necessary)
Put plainly: biochemical. A digest of the protocol: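 β-lactamase from C. freundii 1203 crude extract (French press, 20 mM Tris-HCl pH 7.0) assayed with 0.1 mM nitrocefin in 50 mM phosphate pH 7.0 at 37° C, enzyme set to ΔA/min about 0.1, read at 482 nm. IC50 is inhibitor concentration giving 50% inhibition of nitrocefin cleavage, determined graphically.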

Another test deals with Citrobacter freundii. Description: MIC in vitro of a 1:4 combination of ceftriaxone with a compound of formula I (test D). It is filed as cell-based. The conditions noted are these: 1:4 combination of ceftriaxone with the compound. As to the method: D. Determination of the β-lactamase-inhibiting activity by combination of a compound of general formula I with ceftriaxone
The minimum inhibitory concentration in vitro (MIC in μg/ml) of a 1:4 combination of ceftriaxone with a compound of formula I against Citrobacter freundii is measured and compiled in Table 2 hereinafter.

Setting [1] is: IC 50 nM, isolated β-lactamase of Citrobacter freundii, substrate nitrocefin 0.1 mM, 15 minutes pre-incubation with inhibitor, 37° C., pH 7.0.

Structures can show the parent of a compound that is named as a salt. Where two headings read alike, the source gives them in different places.

T1 sequence (P05193 21-381): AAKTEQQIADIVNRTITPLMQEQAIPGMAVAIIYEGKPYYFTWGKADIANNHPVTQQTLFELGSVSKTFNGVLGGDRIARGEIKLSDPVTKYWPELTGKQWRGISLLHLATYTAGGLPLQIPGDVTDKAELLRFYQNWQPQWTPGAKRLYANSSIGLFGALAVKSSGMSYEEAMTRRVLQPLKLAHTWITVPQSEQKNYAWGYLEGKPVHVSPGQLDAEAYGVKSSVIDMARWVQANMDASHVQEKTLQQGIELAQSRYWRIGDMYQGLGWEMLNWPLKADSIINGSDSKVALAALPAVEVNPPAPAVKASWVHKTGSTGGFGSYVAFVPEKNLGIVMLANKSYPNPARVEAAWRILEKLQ

Turning to `O=C(NNc1ccccc1)N1CC[C@@H]2[C@H]1C(=O)N2S(=O)(=O)O` [17(d), (1S,5R)-7-Oxo-2-(2-phenyl-carbazoyl)-2,6-diazabicyclo[3.2.0]heptane-6-sulphonic acid sodium salt], the IC50 against β-lactamase (setting [1]) was determined as 197 nM. Besides, the “MIC” value in the test with Citrobacter freundii is 2 µg/mL.

With `O=C(NCc1ccc(O)c(O)c1)N1CC[C@@H]2[C@H]1C(=O)N2S(=O)(=O)[O-].[Na+]` [17(e), (1S,5R)-2-(3,4-Dihydroxybenzylcarbamoyl)-7-oxo-2,6-diazabicyclo[3.2.0]heptane-6-sulphonic acid sodium salt], the IC50 on β-lactamase (setting [1]) turned out to be 250 nM. Further, the “MIC” value in the test with Citrobacter freundii amounted to 2 µg/mL.

With `Cc1nnc(O)c(CNC(=O)N2CC[C@@H]3[C@H]2C(=O)N3S(=O)(=O)O)c1C` [17(f), (1S,5R)-2-(3-Hydroxy-5,6-dimethyl-pyridazin-4-yl-methylcarbamoyl)-7-oxo-2,6-diazabicyclo[3.2.0]heptane-6-sulphonic acid sodium salt], the midpoint of inhibition at β-lactamase (setting [1]), the IC50, lay at 193 nM. Besides, the “MIC” value with Citrobacter freundii came to 2 µg/mL.

For the compound `NS(=O)(=O)c1ccc(CNC(=O)N2CC[C@@H]3[C@H]2C(=O)N3S(=O)(=O)[O-])cc1.[Na+]` [17(g), (1S,5R)-7-Oxo-2-(4-sulphamoyl-benzylcarbamoyl)-2,6-diazabicyclo[3.2.0]heptane-6-sulphonic acid sodium salt], the IC50 on β-lactamase (setting [1]) is 427 nM. For the same compound, the “MIC” value in the test on Citrobacter freundii stood at 2 µg/mL.

With `O=C(NCCc1ccc(O)c(O)c1)N1CC[C@@H]2[C@H]1C(=O)N2S(=O)(=O)[O-].[Na+]` [17(k), (1S,5R)-2-[2-(3,4-Dihydroxyphenyl)ethylcarbamoyl]-7-oxo-2,6-diazabicyclo[3.2.0]heptane-6-sulphonic acid sodium salt], the IC50 on β-lactamase (setting [1]) was found to be 109 nM. Further, the “MIC” value in the test with Citrobacter freundii was 16 µg/mL.

With `COc1ccc(NC(=O)N2CC[C@@H]3[C@H]2C(=O)N3S(=O)(=O)[O-])cc1.[Na+]` [17(l), (1S,5R)-2-(4-Methoxyphenylcarbamoyl)-7-oxo-2,6-diazabicyclo[3.2.0]heptane-6-sulphonic acid sodium salt], 437 nM corresponded to half-maximal inhibition against β-lactamase (setting [1]) (IC50). Further, the “MIC” value in the test with Citrobacter freundii worked out at 4 µg/mL.

Turning to `O=C(NCC1CCCCC1)N1CC[C@@H]2[C@H]1C(=O)N2S(=O)(=O)[O-].[Na+]` [17(m), (1S,5R)-2-Cyclohexylmethylcarbamoyl-7-oxo-2,6-diazabicyclo[3.2.0]heptane-6-sulphonic acid sodium salt], the IC50 against β-lactamase (setting [1]) came out at 359 nM. The “MIC” value with Citrobacter freundii is 16 µg/mL.

On to `O=C(OCc1cccs1)N1CC[C@@H]2[C@H]1C(=O)N2S(=O)(=O)[O-].[Na+]` [17(n), (1S,5R)-7-Oxo-2-(thien-2-yl-methoxycarbonyl)-2,6-diazabicyclo[3.2.0]heptane-6-sulphonic acid sodium salt], for which 272 nM corresponded to half-maximal inhibition on β-lactamase (setting [1]) (IC50). Also, the “MIC” value in the test with Citrobacter freundii was 16 µg/mL.

At β-lactamase, `O=C1SCC[C@H]1NC(=O)N1CC[C@@H]2[C@H]1C(=O)N2S(=O)(=O)O` [17(u), (1S,5R)-7-Oxo-2-(R)-(2-oxo-3-tetrahydrothienyl-carbamoyl)-2,6-diazabicyclo[3.2.0]heptane-6-sulphonic acid sodium salt] gave an IC50 of 62 nM. In addition, the “MIC” value in the test on Citrobacter freundii was found to be 2 µg/mL.

Compound `Cn1nnnc1CNC(=O)N1CC[C@@H]2[C@H]1C(=O)N2S(=O)(=O)[O-].[Na+]` [17(z), (1S,5R) -2-[1-Methyl-1H-tetrazol-5-ylmethylcarbamoyl]-7-oxo-2,6-diazabicyclo[3.2.0]heptane-6-sulfonic acid sodium salt] came in with an IC50 against β-lactamase (setting [1]) of 98 nM. Further, the “MIC” value in the test with Citrobacter freundii was 1 µg/mL.

Consider `Cc1cc(=O)oc2cc(OCC(=O)N3CC[C@@H]4[C@H]3C(=O)N4S(=O)(=O)[O-])ccc12.[Na+]` [23(a), (1S,5R)-2-(4-Methyl-2-oxo-2H-benzopyran-7-yloxyacetyl)-7-oxo-2,6-diazabicyclo[3.2.0]heptane-6-sulfonic acid sodium salt], for which, on β-lactamase (setting [1]), the IC50 was 97 nM. Moreover, the “MIC” value in the test with Citrobacter freundii turned out to be 16 µg/mL.

As a reminder, the IC50 is the concentration that inhibits the measured activity by half. Low values mean inhibition by little substance, high ones a need for much substance. What is called MIC is the least concentration at which growth counts as inhibited.

The record behind these values is patent publication US6566355B1 (Hoffmann-La Roche Inc., priority 1991, dated 2003).
